Laboratory results as given in ChEMBL document CHEMBL5370538, “Discovery of novel 6-p-tolyl-3-(3,4,5-trimethoxybenzyl)-7H-[1,2,4]triazolo[3,4-b][1,3,4]thiadiazine derivative as a potent tubulin inhibitor with promising in vivo antitumor activity” (Eur J Med Chem, 2023).

Legend:
[1] = Antiproliferative activity against human HEK293 cells assessed as cell growth inhibition incubated for 48 hrs by MTT assay; format: toxicity, cell-based
HeLa [2] = assay: Induction of apoptosis in human HeLa cells assessed as late apoptotic cells at 0.06 uM incubated for 24 hrs Annexin V-FITC/PI staining based flow cytometry analysis (Rvb= 2.13 %); format: functional
HeLa [3] = assay: Induction of cell cycle arrest in human HeLa cells assessed as accumulation of cells at G2/M phase at 0.12 uM incubated for 24 hrs by propidium iodide staining based flow cytometry (reference value: 17.38 %); format: functional
HeLa [4] = assay: Induction of apoptosis in human HeLa cells assessed as early apoptotic cells at 0.03 uM incubated for 24 hrs Annexin V-FITC/PI staining based flow cytometry analysis (Rvb= 1.85 %); format: functional
[5] = Half life in Sprague-Dawley rat at 2 mg/kg,iv measured upto 24 hrs by LC-MS/MS analysis; format: ADME, organism-based; conditions: in vivo
[6] = Half life in Sprague-Dawley rat at 10 mg/kg,po measured upto 24 hrs by LC-MS/MS analysis; format: ADME, organism-based; conditions: in vivo
[7] = AUC (0-t) in Sprague-Dawley rat at 2 mg/kg,iv measured upto 24 hrs by LC-MS/MS analysis; format: ADME, organism-based; set-up: dose 2 mg/kg, time < 24 hrs, route iv; conditions: in vivo
HeLa [8] = assay: Induction of cell cycle arrest in human HeLa cells assessed as accumulation of cells at G0/G1 phase at 0.06 uM incubated for 24 hrs by propidium iodide staining based flow cytometry (reference value: 62.4 %); format: functional
HT-29 = assay: Antiproliferative activity against human HT-29 cells assessed as cell growth inhibition incubated for 48 hrs by MTT assay; format: functional, cell-based; conditions: HT-29, 48 h
HeLa [9] = assay: Induction of apoptosis in human HeLa cells assessed as necrotic cells at 0.06 uM incubated for 24 hrs Annexin V-FITC/PI staining based flow cytometry analysis (Rvb= 0.12 %); format: functional
HeLa [10] = assay: Induction of apoptosis in human HeLa cells assessed as early apoptotic cells at 0.06 uM incubated for 24 hrs Annexin V-FITC/PI staining based flow cytometry analysis (Rvb= 1.85 %); format: functional
HeLa [11] = assay: Induction of cell cycle arrest in human HeLa cells assessed as accumulation of cells at S phase at 0.03 uM incubated for 24 hrs by propidium iodide staining based flow cytometry (reference value: 20.22 %); format: functional
HeLa [12] = assay: Induction of apoptosis in human HeLa cells assessed as necrotic cells at 0.03 uM incubated for 24 hrs Annexin V-FITC/PI staining based flow cytometry analysis (Rvb= 0.12 %); format: functional
[13] = Clearance in Sprague-Dawley rat at 2 mg/kg,iv measured upto 24 hrs by LC-MS/MS analysis; format: ADME, organism-based; conditions: in vivo
HeLa [14] = assay: Induction of apoptosis in human HeLa cells assessed as late apoptotic cells at 0.12 uM incubated for 24 hrs Annexin V-FITC/PI staining based flow cytometry analysis (Rvb= 2.13 %); format: functional
[15] = MRT (0-t) in Sprague-Dawley rat at 10 mg/kg,po measured upto 24 hrs by LC-MS/MS analysis; format: ADME, organism-based; conditions: in vivo
[16] = Toxicity in Balb/c mouse xenografted with human A549 cells assessed as change in body weight at 60 mg/kg,ip administrated for 7 days; format: organism-based; conditions: in vivo, 168 h, time 7 day
[17] = AUC (0-infinity) in Sprague-Dawley rat at 2 mg/kg,iv measured upto 24 hrs by LC-MS/MS analysis; format: ADME, organism-based; set-up: dose 2 mg/kg, time < 24 hrs, route iv; conditions: in vivo
HeLa [18] = assay: Induction of apoptosis in human HeLa cells assessed as viable cells at 0.03 uM incubated for 24 hrs Annexin V-FITC/PI staining based flow cytometry analysis (Rvb= 95.9 %); format: functional; conditions: read-out: Activity
[19] = AUC (0-infinity) in Sprague-Dawley rat at 10 mg/kg,po measured upto 24 hrs by LC-MS/MS analysis; format: ADME, organism-based; set-up: time < 24 hrs, dose 10 mg/kg, route po; conditions: in vivo
HeLa [20] = assay: Induction of apoptosis in human HeLa cells assessed as viable cells at 0.06 uM incubated for 24 hrs Annexin V-FITC/PI staining based flow cytometry analysis (Rvb= 95.9 %); format: functional; conditions: read-out: Activity
HeLa [21] = assay: Induction of cell cycle arrest in human HeLa cells assessed as accumulation of cells at G2/M phase at 0.03 uM incubated for 24 hrs by propidium iodide staining based flow cytometry (reference value: 17.38 %); format: functional
[22] = MRT (0-infinity) in Sprague-Dawley rat at 10 mg/kg,po measured upto 24 hrs by LC-MS/MS analysis; format: ADME, organism-based; conditions: in vivo
[23] = MRT (0-infinity) in Sprague-Dawley rat at 2 mg/kg,iv measured upto 24 hrs by LC-MS/MS analysis; format: ADME, organism-based; conditions: in vivo
[24] = Oral bioavailability in Sprague-Dawley rat at 10 mg/kg measured upto 24 hrs by LC-MS/MS analysis; format: ADME, organism-based; conditions: in vivo
HeLa [25] = assay: Induction of cell cycle arrest in human HeLa cells assessed as accumulation of cells at G0/G1 phase at 0.03 uM incubated for 24 hrs by propidium iodide staining based flow cytometry (reference value: 62.4 %); format: functional
HeLa [26] = assay: Induction of cell cycle arrest in human HeLa cells assessed as accumulation of cells at S phase at 0.12 uM incubated for 24 hrs by propidium iodide staining based flow cytometry (reference value: 20.22 %); format: functional
HeLa [27] = assay: Antiproliferative activity against human HeLa cells assessed as cell growth inhibition incubated for 48 hrs by MTT assay; format: functional, cell-based
HeLa [28] = assay: Induction of apoptosis in human HeLa cells assessed as necrotic cells at 0.12 uM incubated for 24 hrs Annexin V-FITC/PI staining based flow cytometry analysis (Rvb= 0.12 %); format: functional
Tubulin (Homo sapiens) = Tubulin (Homo sapiens) (UniProt P68371+Q9H4B7+P0DPH7+P68366+Q13509+Q71U36+P04350+Q3ZCM7+P07437+P68363+Q9BQE3+Q6PEY2+Q13885+Q9BVA1+Q9BUF5); assay: Inhibition of tubulin polymerization (unknown origin) at 10 uM measured for 20 mins in presence of GTP by spectrophotometry analysis relative to control; format: protein-complex assay
[29] = Tmax in Sprague-Dawley rat at 2 mg/kg,iv measured upto 24 hrs by LC-MS/MS analysis; format: ADME, organism-based; conditions: in vivo
HeLa [30] = assay: Induction of cell cycle arrest in human HeLa cells assessed as accumulation of cells at S phase at 0.06 uM incubated for 24 hrs by propidium iodide staining based flow cytometry (reference value: 20.22 %); format: functional
Tubulin = assay: Inhibition of tubulin polymerization (unknown origin) measured for 20 mins in presence of GTP by spectrophotometry analysis; format: protein-complex assay, Homo sapiens
A549 = assay: Antitumor activity against human A549 cells xenografted in Balb/c mouse assessed as tumor growth inhibition at 60 mg/kg,ip administrated for 7 days; format: functional; conditions: A549, 168 h, time 7 day, read-out: TGI
[31] = Cmax in Sprague-Dawley rat at 2 mg/kg,iv measured upto 24 hrs by LC-MS/MS analysis; format: ADME, organism-based; set-up: time < 24 hrs, dose 2 mg/kg, route iv; conditions: in vivo
[32] = Clearance in Sprague-Dawley rat at 10 mg/kg,po measured upto 24 hrs by LC-MS/MS analysis; format: ADME, organism-based; conditions: in vivo
HeLa [33] = assay: Induction of cell cycle arrest in human HeLa cells assessed as accumulation of cells at G0/G1 phase at 0.12 uM incubated for 24 hrs by propidium iodide staining based flow cytometry (reference value: 62.4 %); format: functional

For `COc1cc(Cc2nnc3n2N=C(c2ccc(C)cc2)CS3)cc(OC)c1OC`, the IC50 at 48 h [1] was over 100000 nM, the Activity (HeLa [2]) was 7.44% and the Activity (HeLa [3]) was 91.09%. The Activity (HeLa [4]) was 18.6%, the half-life [5] was 5.3 h and the half-life [6] was 4.8 h. For the same molecule, the AUC(0-t) at 24 h [7] was 307 ng·h/mL, the Activity (HeLa [8]) was 1.94% and the IC50 (HT-29) was 570 nM. The Activity (HeLa [9]) was 0.46%, the Activity (HeLa [10]) was 17.4% and the Activity (HeLa [11]) was 19.86%. The Activity (HeLa [12]) was 0.57%, the CL [13] was 118 mL/min/kg and the Activity (HeLa [14]) was 9.21%. The MRT last at 24 h [15] was 6.4 h, the Activity [16] was “Non-Toxic” and the AUC(0-inf) [17] was 310 ng·h/mL. It also gave a viability at 0.03 µM (HeLa [18]) of 76%, an AUC(0-inf) [19] of 124 ng·h/mL and a viability at 0.06 µM (HeLa [20]) of 74.7%. It also gave an Activity (HeLa [21]) of 27.37%, an MRT inf [22] of 7.9 h and an MRT [23] of 1.8 h. The bioavailability [24] was 11.6%, the Activity (HeLa [25]) was 52.76% and the Activity (HeLa [26]) was 8.4%. For the same molecule, the IC50 (HeLa [27]) was 46 nM, the Activity (HeLa [28]) was 1.59% and the inhibition (Tubulin (Homo sapiens)) was 43%. For the same molecule, the Tmax [29] was 6 min, the Activity (HeLa [30]) was 28.35% and the IC50 (Tubulin) was 11200 nM. For the same molecule, the inhibition in vivo at 60 mg/kg (A549) was 47.3%, the Cmax [31] was 670 ng/mL and the CL/F [32] was 2180 mL/min/kg. For the same molecule, the Activity (HeLa [33]) was 0.51%.
